Tests used:
[1] = In vivo metabolism (biostability), HPLC analysis of organ samples; details: ICR mice, i.v.
Experimental: All four radioactive ligands degraded to two corresponding polar radioactive products with shorter retention times. […] The good in vivo biostability of these compounds enhances their potential for SPECT mapping of the brain. […] In the plasma, all four ligands were rapidly converted to polar metabolites, leaving only approximately 10% of the parent tracers at 60 min. […] In contrast, the breakdown of [^125I]7a and [^125I]12a was so rapid that almost negligible amounts of parent tracers remained at 30 min (8.8% and 6.3%, respectively). The polar and hydrophilic metabolites metabolized by the liver could be absorbed by the intestine and excreted through the urine, in accordance with the biodistribution results. The rapid metabolism in the liver may be another reason for the faster clearance of these compounds from the normal brain. For structurally identical molecules labeled with radioactive isotopes at different positions, the in vivo metabolic pathways were expected to be the same. However, as only radioactive products can be detected with PET/SPECT scanners, different pharmacokinetics of the radioactive components could lead to different imaging results. […] The dual radiolabeled identical benzyloxybenzene derivatives in this study were expected to undergo the same metabolic reactions, generating different radioactive metabolites. Differences in the biochemical characteristics of the radiometabolites including absorption, distribution, metabolism and excretion are responsible for the discrepancy in the pharmacokinetics of the radioactivity.

Aβ plaques = Aβ plaques (Homo sapiens, UniProt P05067); assay: In vitro autoradiography on AD human brain sections; format: binding
Source text: Figure 5 In vitro autoradiography of [^125I]7a (a–d), [^18F]7a (e–h), [^125I]12a (i–l) and [^18F]12a (m–p).

Chain of Aβ plaques (P05067 672-711 limits assumed): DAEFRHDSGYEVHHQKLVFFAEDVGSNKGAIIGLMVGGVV

SMILES	Percentage of Parent tracer, Brain ([1]; post-injection time 2 min)	Percentage of Parent tracer, Feces ([1]; post-injection time 2 min)	Percentage of Parent tracer, Liver ([1]; post-injection time 2 min)	Percentage of Parent tracer, Plasma ([1]; post-injection time 2 min)	Percentage of Parent tracer, Urine ([1]; post-injection time 2 min)	Percentage of Parent tracer, Brain ([1]; post-injection time 10 min)	Percentage of Parent tracer, Feces ([1]; post-injection time 10 min)	Percentage of Parent tracer, Liver ([1]; post-injection time 10 min)	Percentage of Parent tracer, Plasma ([1]; post-injection time 10 min)	Percentage of Parent tracer, Urine ([1]; post-injection time 10 min)	Percentage of Parent tracer, Brain ([1]; post-injection time 30 min)	Percentage of Parent tracer, Feces ([1]; post-injection time 30 min)	Percentage of Parent tracer, Liver ([1]; post-injection time 30 min)	Percentage of Parent tracer, Plasma ([1]; post-injection time 30 min)	Percentage of Parent tracer, Urine ([1]; post-injection time 30 min)	Percentage of Parent tracer, Brain ([1]; post-injection time 60 min)	Percentage of Parent tracer, Feces ([1]; post-injection time 60 min)	Percentage of Parent tracer, Liver ([1]; post-injection time 60 min)	Percentage of Parent tracer, Plasma ([1]; post-injection time 60 min)	Percentage of Parent tracer, Urine ([1]; post-injection time 60 min)	also measured
[18F]CCOc1ccc(OCc2ccc(I)cc2)cc1 [[^18F]7a]	84.7%	53.6%	79.5%	43.1%	0.0%	69.8%	18.8%	62.6%	21.6%	0.0%	68.9%	10.5%	48.7%	21.8%	0.0%	34.0%	7.3%	23.4%	7.2%	0.0%	in vitro autoradiography, plaque labeling (Aβ plaques): specifically label Aβ deposits
[18F]CCOc1ccc(COc2ccc(I)cc2)cc1 [[^18F]12a]	87.9%	46.7%	91.1%	73.7%	0.0%	65.7%	20.9%	85.3%	40.4%	0.0%	49.2%	16.8%	82.2%	34.1%	0.0%	29.8%	17.4%	21.7%	13.9%	0.0%	in vitro autoradiography, plaque labeling (Aβ plaques): specifically label Aβ deposits
FCCOc1ccc(OCc2ccc([125I])cc2)cc1 [[^125I]7a]	95.9%	22.9%	35.2%	85.2%	0.0%	86.0%	58.8%	13.5%	41.3%	2.6%	79.4%	2.0%	8.8%	22.1%	0.0%	72.1%	0.0%	3.3%	12.3%	0.0%	in vitro autoradiography, plaque labeling (Aβ plaques): specifically label Aβ deposits
